Data published in patent US10111875B2, “Pyrrolopyrimidine compounds and uses thereof” (HUTCHISON MEDIPHARMA LIMITED, priority 2010, dated 2018).

target: Recombinant human JAK1 catalytic domain (Homo sapiens (Human), UniProt P23458); assay: JAK1 kinase assay (Z'-LYTE Tyr 6 Peptide); type: biochemical; details: JAK1 kinase assay, 0.3 uM concentration; read-out: inhibition percentage (IR %)
Protocol: JAK1/2/3 kinase assay are performed in vitro using Kit-Tyr 6 Peptide (Invitrogen, Cat. No. PV4122). TYK2 kinase assay are performed in vitro using Z′-LYTE™ Kinase Assay Kit-Tyr 3 Peptide (Invitrogen, Cat. No. PV3192). […] All compounds are initially tested at 8 different concentrations (1 μM down to 0.0003 μM) using a 1:3 serial dilution scheme.

Recombinant human JAK1 catalytic domain, sequence (P23458 875-1153): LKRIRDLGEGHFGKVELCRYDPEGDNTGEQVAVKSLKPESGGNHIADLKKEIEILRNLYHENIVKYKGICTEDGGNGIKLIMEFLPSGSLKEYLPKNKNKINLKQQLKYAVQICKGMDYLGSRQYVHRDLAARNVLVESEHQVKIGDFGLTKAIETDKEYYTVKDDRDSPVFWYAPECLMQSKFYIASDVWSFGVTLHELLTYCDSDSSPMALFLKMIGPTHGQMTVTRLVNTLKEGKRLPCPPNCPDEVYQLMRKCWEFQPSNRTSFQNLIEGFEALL

| Structure (SMILES) | inhibition at 0.3 µM |
| --- | --- |
| CN(c1ncc(Br)cc1C#N)[C@@H]1CCN(c2ncnc3[nH]ccc23)C1 [Compound 89] | 50 to 100% |
| CN(c1ccc(C#N)c(Cl)n1)[C@@H]1CCN(c2ncnc3[nH]ccc23)C1 [Compound 90] | 50 to 100% |
| CN(c1cccc(C#N)n1)[C@@H]1CCN(c2ncnc3[nH]ccc23)C1 [Compound 91] | 50 to 100% |
| CN(c1ccc(C#N)cn1)[C@@H]1CCN(c2ccnc3[nH]ccc23)C1 [Compound 92] | 50 to 100% |
| CN(c1ncc(Br)cn1)[C@@H]1CCN(c2ncnc3[nH]ccc23)C1 [Compound 94] | 50 to 100% |
| CN(c1ncc(C#N)s1)[C@@H]1CCN(c2ncnc3[nH]ccc23)C1 [Compound 95] | 50 to 100% |
| CN(c1ncc(C#N)cc1[N+](=O)[O-])[C@@H]1CCN(c2ncnc3[nH]ccc23)C1 [Compound 96] | 50 to 100% |
| N#Cc1cnc(N[C@@H]2CCN(c3ncnc4[nH]ccc34)C2)c([N+](=O)[O-])c1 [Compound 97] | 50 to 100% |
| CCCN(c1ccc(C#N)cn1)[C@@H]1CCN(c2ncnc3[nH]ccc23)C1 [Compound 98] | 50 to 100% |
| CN(c1ncc(C#N)cc1Br)[C@@H]1CCN(c2ncnc3[nH]ccc23)C1 [Compound 99] | 50 to 100% |
| Cc1cc(C#N)cnc1N(C)[C@@H]1CCN(c2ncnc3[nH]ccc23)C1 [Compound 100] | 20 to 50% |
| Cc1ccc(N(C)[C@@H]2CCN(c3ncnc4[nH]ccc34)C2)nc1 [Compound 101] | 50 to 100% |
| CN(c1ccc(C#N)cn1)[C@H]1CCN(c2ncnc3[nH]ccc23)C1 [Compound 102] | 50 to 100% |
| CN(c1ccc(C#N)cc1F)[C@@H]1CCN(c2ncnc3[nH]ccc23)C1 [Compound 103, (R)-4-((1-(7H-pyrrolo[2,3-d]pyrimidin-4-yl)pyrrolidin-3-yl)(methyl)amino)-3-fluorobenzonitrile] | 50 to 100% |
| CN(c1ccc(C#N)cc1)[C@@H]1CCN(c2ncnc3[nH]ccc23)C1 [Compound 104] | 50 to 100% |
| CN(c1cc(F)c(C#N)c(F)c1)[C@@H]1CCN(c2ncnc3[nH]ccc23)C1 [Compound 106] | 50 to 100% |
| CN(c1ccc(C#N)cc1[N+](=O)[O-])[C@@H]1CCN(c2ncnc3[nH]ccc23)C1 [Compound 107] | 50 to 100% |
| CN(c1c(F)cc(C#N)cc1F)[C@@H]1CCN(c2ncnc3[nH]ccc23)C1 [Compound 108] | 50 to 100% |
| CN(c1ccc(C#N)cc1C(F)(F)F)[C@@H]1CCN(c2ncnc3[nH]ccc23)C1 [Compound 109] | 20 to 50% |
| CN(c1ccc(C#N)c2ccccc12)[C@@H]1CCN(c2ncnc3[nH]ccc23)C1 [Compound 111] | 50 to 100% |
| CN(c1ccc(C#N)cc1Cl)[C@@H]1CCN(c2ncnc3[nH]ccc23)C1 [Compound 112] | 50 to 100% |
| CN(c1ccc(C#N)c(C#N)c1)[C@@H]1CCN(c2ncnc3[nH]ccc23)C1 [Compound 113] | 20 to 50% |
| CN(c1ccc(C#N)c(Br)c1)[C@@H]1CCN(c2ncnc3[nH]ccc23)C1 [Compound 114] | 50 to 100% |
| CN(c1ccc(C#N)cc1Br)[C@@H]1CCN(c2ncnc3[nH]ccc23)C1 [Compound 115] | 50 to 100% |

| Structure (SMILES) | inhibition at 0.3 µM |
| --- | --- |
| CN(c1c(F)c(F)c(C#N)c(F)c1F)[C@@H]1CCN(c2ncnc3[nH]ccc23)C1 [Compound 117] | 50 to 100% |
| CN(c1cc(F)cc(F)c1C#N)[C@@H]1CCN(c2ncnc3[nH]ccc23)C1 [Compound 118] | 20 to 50% |
| CN(c1cccc(C#N)c1)[C@@H]1CCN(c2ncnc3[nH]ccc23)C1 [Compound 119, (R)-3-((1-(7H-pyrrolo[2,3-d]pyrimidin-4-yl)pyrrolidin-3-yl)(methyl)amino)benzonitrile] | 50 to 100% |
| CN(c1ccc(S(C)(=O)=O)cc1)[C@@H]1CCN(c2ncnc3[nH]ccc23)C1 [Compound 120, (R)—N-methyl-N-(4-(methylsulfonyl)phenyl)-1-(7H-pyrrolo[2,3-d]pyrimidin-4-yl)pyrrolidin-3-amine] | 20 to 50% |
| CN(c1ccnc(C#N)c1)[C@@H]1CCN(c2ncnc3[nH]ccc23)C1 [Compound 121] | 50 to 100% |
| CN(c1ccc(S(=O)(=O)C(F)(F)F)cc1)[C@@H]1CCN(c2ncnc3[nH]ccc23)C1 [Compound 122] | 50 to 100% |
| CN(c1ccc(C(F)(F)F)cn1)[C@@H]1CCN(c2ncnc3[nH]ccc23)C1 [Compound 123] | 50 to 100% |
| N#Cc1ccc(N(CC2CC2)[C@@H]2CCN(c3ncnc4[nH]ccc34)C2)nc1 [Compound 124] | 50 to 100% |
| CCN(c1ccc(C#N)cn1)[C@@H]1CCN(c2ncnc3[nH]ccc23)C1 [Compound 126, (R)-6-((1-(7H-pyrrolo[2,3-d]pyrimidin-4-yl)pyrrolidin-3-yl)(ethyl)amino)-nicotinonitrile] | 50 to 100% |
| C#CCN(c1cnc(C#N)cn1)[C@@H]1CCN(c2ncnc3[nH]ccc23)C1 [Compound 127] | 50 to 100% |
| C#CCN(c1c(F)cc(C#N)cc1F)[C@@H]1CCN(c2ncnc3[nH]ccc23)C1 [Compound 129] | 50 to 100% |
| C#CCN(c1ccc(C#N)cc1F)[C@@H]1CCN(c2ncnc3[nH]ccc23)C1 [Compound 130] | 20 to 50% |
| C#CCN(c1ccc(C#N)cc1)[C@@H]1CCN(c2ncnc3[nH]ccc23)C1 [Compound 131] | 50 to 100% |
| CCN(c1c(F)cc(C#N)cc1F)[C@@H]1CCN(c2ncnc3[nH]ccc23)C1 [Compound 132] | 50 to 100% |
| CCN(c1ccc(C#N)cc1F)[C@@H]1CCN(c2ncnc3[nH]ccc23)C1 [Compound 133] | 50 to 100% |
| CN(c1cnc(NCCO)cn1)[C@@H]1CCN(c2ncnc3[nH]ccc23)C1 [Compound 135] | 20 to 50% |
| CCOc1cnc(N(C)[C@@H]2CCN(c3ncnc4[nH]ccc34)C2)cn1 [Compound 136] | 50 to 100% |
| CN(c1cnc(NCC2CC2)cn1)[C@@H]1CCN(c2ncnc3[nH]ccc23)C1 [Compound 138] | 50 to 100% |
| COc1nccc(N(C)[C@@H]2CCN(c3ncnc4[nH]ccc34)C2)n1 [Compound 141] | 20 to 50% |
| CN(c1ccc(-c2ccc(C#N)cc2)cn1)[C@@H]1CCN(c2ncnc3[nH]ccc23)C1 [Compound 146] | 20 to 50% |
| CN(c1ccc(-c2cccs2)cn1)[C@@H]1CCN(c2ncnc3[nH]ccc23)C1 [Compound 147] | 50 to 100% |
| CN(c1ccc(C#N)cc1-c1cccc(C#N)c1)[C@@H]1CCN(c2ncnc3[nH]ccc23)C1 [Compound 148] | 20 to 50% |
| CN(c1ccc(-c2cn[nH]c2)cn1)[C@@H]1CCN(c2ncnc3[nH]ccc23)C1 [Compound 150] | 50 to 100% |
| CN(c1cnc(-c2ccn[nH]2)cn1)[C@@H]1CCN(c2ncnc3[nH]ccc23)C1 [Compound 152] | 50 to 100% |

same assay, conditions: read-out: inhibition percentage (IR %)

| Structure (SMILES) | inhibition at 0.3 µM |
| --- | --- |
| CN(c1cc(Cl)c(C#N)cc1F)[C@@H]1CCN(c2ncnc3[nH]ccc23)C1 [Compound 110] | 20 to 50% |
| CN(c1ccc(C#N)c(Cl)c1)[C@@H]1CCN(c2ncnc3[nH]ccc23)C1 [Compound 116] | 20 to 50% |
| CN(c1ccc(-c2ccncc2)cn1)[C@@H]1CCN(c2ncnc3[nH]ccc23)C1 [Compound 144] | 50 to 100% |
